Laboratory results reported in ChEMBL document CHEMBL1201862, “PubChem BioAssay data set” (2004).
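Cells were grown in 96-well plates and exposed to each compound for 48 hours at five concentrations; endpoints were interpolated linearly between bracketing concentrations, or set to the highest concentration if not reached. Here, GI50 denotes the concentration required for 50% inhibition of growth.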 The source made the active and inactive calls. Rule as the data show it: active = GI50 up to about 1.1 µM and inactive = higher.

Legend:
Assay in all cases: inhibition of tumour cell growth, NCI panel, 48 h
U-251 = tested on: U-251
T47D = tested on: T47D
SR = tested on: SR
HCT-15 = tested on: HCT-15
NCI/ADR-RES = tested on: NCI/ADR-RES
NCI-H23 = tested on: NCI-H23
CAKI-1 = tested on: CAKI-1
SK-MEL-5 = tested on: SK-MEL-5
Malme-3M = tested on: Malme-3M
OVCAR-8 = tested on: OVCAR-8
SK-MEL-2 = tested on: SK-MEL-2
SF-268 = tested on: SF-268
Hs-578T = tested on: Hs-578T
A549 = tested on: A549
HOP-92 = tested on: HOP-92
K562 = tested on: K562
IGROV-1 = tested on: IGROV-1
NCI-H226 = tested on: NCI-H226
HCT-116 = tested on: HCT-116
DU-145 = tested on: DU-145
NCI-H522 = tested on: NCI-H522
NCI-H460 = tested on: NCI-H460
PC-3 = tested on: PC-3
UACC-62 = tested on: UACC-62
MDA-MB-435 = tested on: MDA-MB-435
EKVX = tested on: EKVX
RPMI-8226 = tested on: RPMI-8226
MDA-MB-231 = tested on: MDA-MB-231
UO-31 = tested on: UO-31
SNB-75 = tested on: SNB-75
SF-539 = tested on: SF-539
OVCAR-4 = tested on: OVCAR-4
786-0 = tested on: 786-0
M14 = tested on: M14
MDA-N = tested on: MDA-N
SW-620 = tested on: SW-620
ACHN = tested on: ACHN
SK-MEL-28 = tested on: SK-MEL-28
TK-10 = tested on: TK-10
UACC-257 = tested on: UACC-257
SNB-19 = tested on: SNB-19
KM12 = tested on: KM12
CCRF-CEM = tested on: CCRF-CEM
COLO 205 = tested on: COLO 205
A498 = tested on: A498
HT-29 = tested on: HT-29
HL-60 = tested on: HL-60
MOLT-4 = tested on: MOLT-4
BT-549 = tested on: BT-549
SN12C = tested on: SN12C
MCF7 = tested on: MCF7
SK-OV-3 = tested on: SK-OV-3
RXF 393 = tested on: RXF 393

SMILES: O=c1[nH]c(Nc2nc3ccccc3[nH]2)nc(O)c1Cc1ccccc1
- GI50 (U-251): 56.8 µM (inactive)
- GI50 (T47D): > 100 µM (inactive)
- GI50 (SR): > 100 µM (inactive)
- GI50 (HCT-15): > 100 µM
- GI50 (NCI/ADR-RES): > 100 µM (inactive)
- GI50 (NCI-H23): > 100 µM (inactive)
- GI50 (CAKI-1): > 100 µM (inactive)
- GI50 (SK-MEL-5): > 100 µM (inactive)
- GI50 (Malme-3M): > 100 µM (inactive)
- GI50 (OVCAR-8): > 100 µM (inactive)
- GI50 (SK-MEL-2): > 100 µM (inactive)
- GI50 (SF-268): > 100 µM (inactive)
- GI50 (Hs-578T): 56 µM (inactive)
- GI50 (A549): > 100 µM (inactive)
- GI50 (HOP-92): 0.193 µM (active)
- GI50 (K562): > 100 µM (inactive)
- GI50 (IGROV-1): > 100 µM (inactive)
- GI50 (NCI-H226): > 100 µM (inactive)
- GI50 (HCT-116): > 100 µM (inactive)
- GI50 (DU-145): > 100 µM (inactive)
- GI50 (NCI-H522): > 100 µM (inactive)
- GI50 (NCI-H460): > 100 µM (inactive)
- GI50 (PC-3): > 100 µM (inactive)
- GI50 (UACC-62): > 100 µM (inactive)
- GI50 (MDA-MB-435): > 100 µM (inactive)
- GI50 (EKVX): > 100 µM (inactive)
- GI50 (RPMI-8226): > 100 µM (inactive)
- GI50 (MDA-MB-231): > 100 µM (inactive)
- GI50 (UO-31): > 100 µM (inactive)
- GI50 (SNB-75): 24 µM (inactive)
- GI50 (SF-539): > 100 µM (inactive)
- GI50 (OVCAR-4): > 100 µM (inactive)
- GI50 (786-0): 61.5 µM (inactive)
- GI50 (M14): > 100 µM (inactive)
- GI50 (MDA-N): > 100 µM (inactive)
- GI50 (SW-620): > 100 µM (inactive)
- GI50 (ACHN): 61 µM (inactive)
- GI50 (SK-MEL-28): > 100 µM (inactive)
- GI50 (TK-10): > 100 µM (inactive)
- GI50 (UACC-257): > 100 µM (inactive)
- GI50 (SNB-19): 67.8 µM (inactive)
- GI50 (KM12): > 100 µM (inactive)
- GI50 (CCRF-CEM): > 100 µM (inactive)
- GI50 (COLO 205): > 100 µM (inactive)
- GI50 (A498): > 100 µM (inactive)
- GI50 (HT-29): > 100 µM (inactive)
- GI50 (HL-60): > 100 µM (inactive)
- GI50 (MOLT-4): > 100 µM (inactive)
- GI50 (BT-549): > 100 µM (inactive)
- GI50 (SN12C): > 100 µM (inactive)

SMILES: C[N+](C)(C)CCOP(=O)(O)OP(=O)([O-])OCC1CCC(n2ccc(N)nc2=O)O1 (stereo unspecified)
- GI50 (U-251): > 100 µM (inactive)
- GI50 (T47D): > 100 µM (inactive)
- GI50 (MCF7): > 100 µM (inactive)
- GI50 (NCI/ADR-RES): > 100 µM (inactive)
- GI50 (SK-OV-3): > 100 µM (inactive)
- GI50 (OVCAR-8): > 100 µM (inactive)
- GI50 (SK-MEL-2): > 100 µM (inactive)
- GI50 (Hs-578T): > 100 µM (inactive)
- GI50 (RXF 393): > 100 µM (inactive)
- GI50 (IGROV-1): > 100 µM (inactive)
- GI50 (HCT-116): > 100 µM (inactive)
- GI50 (PC-3): > 100 µM (inactive)
- GI50 (EKVX): > 100 µM (inactive)
- GI50 (MDA-MB-231): > 100 µM (inactive)
- GI50 (786-0): > 100 µM (inactive)
- GI50 (MDA-N): > 100 µM (inactive)
- GI50 (SNB-19): > 100 µM (inactive)
- GI50 (CCRF-CEM): > 100 µM (inactive)
- GI50 (COLO 205): > 100 µM (inactive)
- GI50 (MOLT-4): > 100 µM (inactive)
- GI50 (BT-549): > 100 µM (inactive)
